Tests used:
[1] = tested on: choleretic effect of curcumin; conditions: cited from earlier work
cholesterol levels = conditions: rats; cited from earlier work
bacteria = conditions: in vitro; cited from earlier work
inflammation = conditions: cited from earlier work
[2] = tested on: Oedema of right-hind paw induced by injection of 1% carrageenan solution; experiment: Carrageenan-induced paw oedema inhibition in rats; format: in vivo, Male inbred albino rats, Wistar derived LMR strain; conditions: rat, 0.01 g one hour before induction, controls safflower oil
Protocol: Male inbred albino rats of the Wistar derived LMR strain, weighing between 140 and 160 grams are used. Each treatment group consists of ten rats. The rats are fasted for one night and weighed the next morning. Oedema is induced in the right-hind paw of each rat by means of an injection of 1% carrageenan solution. Before the injection and each hour after injection, the volume of the right-hind paw is measured. Measurement of the volume is done by dipping the rats paw into a liquid up to a predetermined mark and measuring or weighing the displaced liquid. The apparatus for measuring volume is calibrated against objects with known volumes. Animals in the treatment groups are administered the drug orally once an hour for three hours before induction of oedema. Animals in the control groups are administered either safflower oil or polyethyleneglycol (PEG) one hour before induction. Piroxicam, a known anti-inflammatory agent used as a positive control, is administered one hour before induction.

Compound: O=C(C=Cc1ccc(O)cc1)CC(=O)C=Cc1ccc(O)cc1 [Bis-desmethoxycurcumin, dihydroxydicinnamoyl methane]
- choleretic effect of curcumin [1]: inhibit the choleretic effect of curcumin

Compound: COc1cc(/C=C/C(=O)CC(=O)/C=C/c2ccc(O)c(OC)c2)ccc1O [Curcumin, diferuloylmethane]
- cholesterol levels (cholesterol levels): lower cholesterol levels
- antibacterial activity (bacteria): antibacterial activity
- anti-inflammatory effects (inflammation): anti-inflammatory effects

Compound: CN1C(C(=O)Nc2ccccn2)=C(O)c2ccccc2S1(=O)=O [Piroxicam]
- % Oedema Inhibition over 6 Hr. Period After Induction, 1 hr. ([2]; 1 hr. after induction): 25.9%
- % Oedema Inhibition over 6 Hr. Period After Induction, 2 hr. ([2]; 2 hr. after induction): 49.0%
- % Oedema Inhibition over 6 Hr. Period After Induction, 3 hr. ([2]; 3 hr. after induction): 52.6%
- % Oedema Inhibition over 6 Hr. Period After Induction, 4 hr. ([2]; 4 hr. after induction): 43.4%
- % Oedema Inhibition over 6 Hr. Period After Induction, 5 hr. ([2]; 5 hr. after induction): 41.4%
- % Oedema Inhibition over 6 Hr. Period After Induction, 6 hr. ([2]; 6 hr. after induction): 36.5%

Source: patent US5120538A, “Combinations of compounds isolated from curcuma spp as anti-inflammatory agents” (PT Darya-Varia Laboratoria, priority 1990, dated 1992)
